# In patent publication US5661182A, “Method for lowering oxygen affinity of hemoglobin in redcell suspensions, in whole blood and in vivo” (Virginia Commonwealth University, priority 1995, dated 1997):
# How the values were obtained:
# [1] = molecular target: deoxyhemoglobin (Homo sapiens, UniProt P68871+P69905); test: X-ray crystallographic studies with deoxyhemoglobin; type: binding
# Procedure: X-ray Crystallographic Studies. Hemoglobin for the crystal studies was prepared from human blood, and T-state deoxy crystals were obtained from ammonium sulfate solutions. RSR-4 or RSR-13 (2 effectors/I Hb) was dissolved in a slight excess of sodium bicarbonate to facilitate dissolution and was added to a 6 g % solution of deoxy-Hb in the glove box. A 1 g % Hb RSR-4 or RSR-13 solution was added to each crystallization tube. Crystals grew in approximately 1 week. X-ray data were collected with Friedel pairs using ω scans on a Rigaku AFC5R diffractometer equipped with a rotating anode and a 60-cm long evacuated beam tunnel. The crystals with allosteric effectors were isomorphous with native deoxy-Hb: RSR-4, 63.2, 83.7, and 53.8 Å, 99.4°; RSR-13, 63.2, 83.6, and 53.7 Å, 99.5°. Data collection (RSR-4 to 2.4-Å and RSR-13 to 2.8-Å resolution) was controlled by TEXAN software from Molecular Structure Corp. (The Woodlands, Tex.). There was little radiation damage to crystals, and new crystals were mounted when standard reference reflection intensities fell by 10%. All data were corrected for radiation damage when appropriate. The R-factors for the Friedel pairs and derivatives vs. native were as follows: RSR-4 (2.4 Å), 14.6% and 18.9%, and RSR-13 (2.8 Å), 7.2% and 12.5%, respectively. The difference electron density maps were obtained using the Cambridge computer programs (CCP4). […] The allosteric effector molecules were well resolved and easily fit to the difference density.
# [2] = molecular target: HbA (normal adult hemoglobin) (Homo sapiens, UniProt P68871+P69905); test: Oxygen equilibrium of isolated human Hb solutions (HbA p50); type: biochemical; settings: human Hb solution; for p50 shift at increasing chloride concentration: 0.5 mM, chloride 0-400 mM; for HbA(p50): effector 0.5 mM, pH 7.2, 100 mM NaCl, 25 °C
# Description: (§1) L3,5 and L3,4,5 were provided by Dr. Lalezari (Montefiore Hospital, New York); RSR-4 [2-[4-[[(3,5-dichloroanilino)carbonyl]methyl]phenoxy]-2-methylpropionic acid]and RSR13 [2-4-[[(3,5- dimethylanilino)carbonyl]methyl]phenoxy]-2-methylpropionic acid] have been synthesized following the procedure described in Randad et al. (J. Med. Chem. 34,752 (1991)). Human serum albumin (HSA), bovine serum albumin (BSA) and 4,4'diisothiocyanatostilbene-2,2'-disulfonate (DIDS) were purchased from Sigma (St. Louis, Mo.). Due to their low solubility in aqueous buffer, 10 mM stock solutions of the compounds were prepared in a slight exccess of sodium bicarbonate and back-titrated to pH 7.4. For example, RSR-4 or RSR-13 was dissolved at 60° C. in a 140 mM NaCl and 50 mM bis-Tris buffer at room temperature upon progressive addition of NaHCO3 to obtain 10 mM stock solutions. The pH was carefully adjusted to 7.4 after complete solubilization and before use of the solutions. Fresh solutions were prepared each week. Stock solutions of DIDS (1 mM) were prepared, in the dark, on the day of the experiments in a pH 7.4 buffer. Human serum albumin (defatted HSA) and bovine serum albumin (BSA) were prepared freshly as 1 mM stock solutions, pH 7.4. Equilibrium Measurements. The allosteric modulation of the effectors on freshly prepared solutions of hemoglobin or red cell suspensions was measured by the change in p50, the partial pressure of oxygen for half-saturation. Oxygen equilibrium curves (OEC) were carried out with the Hemox analyzer (TCS, Southampton, Pa.) under the following conditions: pH 7.4, 140 mM NaCl and 50 mM bis-Tris buffer at 37° C. In all experiments, the concentration of hemoglobin in the red cell suspensions was 20-25 μM hemoglobin tetramer (Hb4) as measured by Drabkin's method (cyanomethemoglobin) at the end of each recording. The final concentration of the allosteric effector in the cuvette was 0.5 mM, resulting in an effector/Hb4 ratio of 20 in the absence of albumin. OEC were also made in the same buffer containing 12.5, 25, 50, and 100 μM HSA (for human red cell suspensions) or BSA (for bovine cell suspensions). The serum albumin experiments were carried out with traces of an antifoaming agent. This agent has no deleterious effect on the red cell suspensions. The molar ratio of albumin to tetrameric hemoglobin was varied from 0.5 (at 12.5 μM HSA) to 4 (at 100 μM HSA); in whole blood this ratio is approximately 0.3 (0.7 mM albumin plus plasma proteins/2.25 mM Hb4). Therefore, the concentration of albumin used in the present studies was always larger relative to tetrameric hemoglobin than that found in whole blood.
# Bovine Red Cell Studies. […]
# [3] = molecular target: hemoglobin in human red blood cells (Homo sapiens, UniProt P68871+P69905); test: Calculated oxygen delivery index of human red blood cell suspensions (ΔY); type: cell-based; settings: human RBC, effector 0.5 mM
# Description: as §1
# In FIG. 2, curve (1) is the control, curve (2) is the suspension plus 0.5 mM RSR-4, curve (3) is the suspension plus 0.5 mM RSR-4 plus 50 μM HSA, and curve […] is the suspension plus 0.5 mM RSR-4 plus 100 μM HSA. The concentration ratios of albumin/Hb are above those found in vivo. For example, in curve (3) serum albumin is about six times and in curve (4) about twelve times in excess above the concentration ratio of albumin/Hb found in vivo. The vertical lines indicate the physiological pO2 values in the arterial blood (90 mmHg) and in the mixed venous blood (40 mmHg). The change in oxygen saturation between these two lines allows an estimation of the capability of the red blood cells to deliver oxygen to tissues (ΔY (%), as discussed below in conjunction with Table 4).
# In Vivo Estimates for Percent of Oxygen Delivery. Table 4 presents the calculated oxygen delivery index for red blood cell suspensions in the presence or absence of 0.5 mM L3,5 or RSR-4. The experimental conditions for the experiments of Table 4 were the same as those used for Table 1. The oxygen delivery index was calculated from the experimental oxygen binding curves as the difference in hemoglobin oxygen saturation (percent) corresponding to the pO2 in the arterial blood (90 mmHg) and that in the mixed venous blood (40 mMHg). […]
p50 shift at increasing chloride concentration [2],HbA(p50) [2],ΔY (oxygen delivery index) ([3]; 50 μM HSA),ΔY (oxygen delivery index) ([3]; 100 μM HSA),ΔY (oxygen delivery index) ([3]; no HSA),SMILES,binding site in deoxyhemoglobin crystal [1],second symmetry-related pair of binding sites ([1]; near Arg 104β)
,,,,,Cc1cc(C)cc(NC(=O)Cc2ccc(OC(C)(C)C(=O)O)cc2)c1 [RSR-13],bind in the central water cavity in a conformation identical to that found for RSR-4,
identical at all chloride concentrations,35.5 mmHg,39%,34%,41.5%,"CC(C)(Oc1ccc(CC(=O)Nc2cc(Cl)cc(Cl)c2)cc1)C(=O)O [RSR-4, 2-[4-[[(3,5-dichloroanilino)carbonyl]methyl]phenoxy]-2-methylpropionic acid]",,
identical at all chloride concentrations,47 mmHg,30%,25%,42%,"CC(C)(Oc1ccc(NC(=O)Nc2cc(Cl)cc(Cl)c2)cc1)C(=O)O [L3,5, reference compound]",,have a second symmetry-related pair of binding sites near Arg 104β
